From the NIST ThermoML archive (doi:10.1016/j.jct.2005.09.005)
± gives the expanded uncertainty stated by the source.

Columns and labels:
[1] = Crystal; Adiabatic calorimetry
[2] = Molar enthalpy of transition or fusion; conditions: Crystal; Adiabatic calorimetry

Normal melting temperature [1]: 3.68 ± 0.05 °C
Molar enthalpy of transition or fusion [2]: 1.47 ± 0.0225 kcal/mol
SMILES: [2H]O[2H] [water-d2]
